Test results as given in ChEMBL document CHEMBL4339240, “Structural Elucidation of Presilphiperfolane-7α,8α-diol, a Bioactive Sesquiterpenoid from Pulicaria vulgaris: A Combined Approach of Solvent-Induced Chemical Shifts, GIAO Calculation of Chemical Shifts, and Full Spin Analysis” (J Nat Prod, 2019).

What was measured:
[1] = Toxicity in Artemia salina by brine shrimp lethality assay; details: in vivo
[2] = Toxicity in mouse assessed as induction of mortality; details: in vivo

With O=C1C[C@@H]2OCC=C3CN4CC[C@]56c7ccccc7N1[C@H]5[C@H]2[C@H]3C[C@H]46.O=S(=O)(O)O the LC50 [1] was 200 µM and the LD50 [2] was < 2 mg/kg.
